Measurements taken from article PMC10733463, “Berberine-microbiota interplay: orchestrating gut health through modulation of the gut microbiota and metabolic transformation into bioactive metabolites” (Frontiers in Pharmacology, 2023).

Key:
Caco-2 cells = test: Cell viability assay (neutral red uptake), Caco-2; assay type: cell-based, human; conditions: 0.1 µg berberine/mL medium
Protocol: Caco-2 cells (human intestinal epithelial cells) were cultured in MEM (Gibco, Paisley, United Kingdom) supplemented with 10% Fetal Bovine Serum (FBS), 1% L-glutamine (Gibco), 1% MEM NEAA (Gibco) and 1% penicillin/streptomycin (P/S) (Gibco). T84 cells (human intestinal epithelial cells) were cultured in 1:1 DMEM/F12 (Gibco) supplemented with 10% FBS, 1% L-glutamine and 1% P/S (37°C, 5% CO2). The neutral red uptake assay was employed to evaluate the potential cytotoxicity of berberine ([Repetto et al., 2008]). Briefly, Caco-2 and T84 were seeded at 2 × 10^5 cells/well and 5 × 10^4 cells/well respectively in 96-well plates (Greiner Bio-one, Frickenhausen, Germany) and cultivated for 24 h in antibiotic-free medium (treatment medium) for attachment. […] A 10-fold dilution of sodium dodecyl sulfate (Sigma-Aldrich), ranging from 10 mg/mL to 10^−6 mg/mL was used a positive control. Cells were washed with 200 µL pre-warmed HBSS(+) (Gibco) and then treated with 150 µL of Neutral Red medium, consisting of 1:80 Neutral Red solution 0.33% (Sigma-Aldrich)/treatment medium for 3 h. Cells were washed in 200 µL HBSS(+) and treated with 100 µL of Neutral Red Desorb solution, consisting of 1% glacial acetic acid (Merck, Darmstadt, Germany), 50% ethanol (95%, Chem-Lab, Zedelgem, Belgium) and 49% deionized water.

CD3+ T-cells = test: CD3 immunohistochemistry of duodenal tissue; assay type: in vivo, Ross 308 broiler chickens; conditions: duodenum, 21 days
Description: The study was undertaken following the guidelines of the ethics committee of the Faculty of Veterinary Medicine and Bioscience Engineering, Ghent University, in accordance with the EU Directive 2010/63/EU. […] They were allotted into 4 groups, with three replicate pens per group each housing 8 chickens. The animals were not vaccinated. Water and commercial starter feed (day 1-12, FARM 1 Mash, Country's Best, […], Belgium) or grower (day 13-21, FARM 2 mash, Country's Best, […], Belgium) were provided ad libitum. […] At day 21, 4 birds per pen were weighted then euthanized by sodium pentobarbital injection for sampling. […] Additionally, ileal and caecal content samples were collected and stored at -20°C for berberine and berberine-derived metabolite quantification. […] Slides for immunohistochemical staining for CD3^+ T-cells were automatically deparaffinized (Shandon […]-Gemini) before antigen retrieval with a pressure cooker in citrate buffer (10 mM, pH 6). Endogenous peroxidase activity was blocked by treating the slides with peroxidase blocking reagent ([…], Dako, Glostrup, Denmark) for 5 min. The presence of T-cells (CD3-positive cell abundance) in duodenal tissue from 21-day old chickens was evaluated using polyclonal primary antibodies against CD3 ([…], Dako, 1:100 dilution, 30 min at room temperature), followed by incubation with a secondary labelled polymer-HRP anti-rabbit antibody (Envision + System-HRP (DAB) ([…]), 30 min at room temperature). Slides were evaluated using the computer-based image analysis program, LAS V4.1. The CD3^+ area percentage in the duodenal tissue was quantified using four representative fields of view per intestinal section (10x objective).

ileal microbiota = test: 16S rRNA gene sequencing, microbiota composition in the ileum; assay type: in vivo, Ross 308 broiler chickens
[1] = 0.1 g berberine/kg feed vs normal diet, 21 days, LinDA-normalized abundance
[2] = 0.1 g berberine/kg feed, 21 days
[3] = 0.5 g berberine/kg feed vs normal diet, 21 days, LinDA-normalized abundance
[4] = 0.5 g berberine/kg feed, 21 days
[5] = 1 g berberine/kg feed vs normal diet, 21 days, LinDA-normalized abundance

Compound: COc1ccc2cc3[n+](cc2c1OC)CCc1cc2c(cc1-3)OCO2 [Berberine, Berberine chloride]
- Cytotoxicity (Neutral Red Uptake) (Caco-2 cells): considered safe
- CD3+ area percentage (CD3+ T-cells; 0.1 g berberine/kg feed): 8.39 ± 1.05
- CD3+ area percentage (CD3+ T-cells; 0.5 g berberine/kg feed): 8.89 ± 2.09
- CD3+ area percentage (CD3+ T-cells; 1 g berberine/kg feed): 7.11 ± 2.18
- L2 FC Cronobacter, 0.1 vs 0 (ileal microbiota; [1]): 0.38
- L2 FC Curtobacterium, 0.1 vs 0 (ileal microbiota; [1]): -0.49
- L2 FC Faecalibacterium, 0.1 vs 0 (ileal microbiota; [1]): 1.89
- L2 FC Family_ Peptostreptococcaceae, 0.1 vs 0 (ileal microbiota; [1]): 2.07
- L2 FC Glutamicibacter, 0.1 vs 0 (ileal microbiota; [1]): 0.33
- L2 FC Lachnoclostridium 5, 0.1 vs 0 (ileal microbiota; [1]): 0.40
- L2 FC Ralstonia, 0.1 vs 0 (ileal microbiota; [1]): -0.96
- L2 FC Romboutsia, 0.1 vs 0 (ileal microbiota; [1]): 2.23
- L2 FC Serratia, 0.1 vs 0 (ileal microbiota; [1]): 0.03
- L2 FC Tyzzerella, 0.1 vs 0 (ileal microbiota; [1]): 0.06
- L2 FC uncultured genus of Mollicutes RF39, 0.1 vs 0 (ileal microbiota; [1]): 0.63
- L2 FC uncultured genus of Peptostreptococcaceae, 0.1 vs 0 (ileal microbiota; [1]): 1.99
- Mean relative abundance (%) Cronobacter (ileal microbiota; [2]): 0.00%
- Mean relative abundance (%) Curtobacterium (ileal microbiota; [2]): 0.01%
- Mean relative abundance (%) Faecalibacterium (ileal microbiota; [2]): 0.02%
- Mean relative abundance (%) Family_ Peptostreptococcaceae (ileal microbiota; [2]): 0.37%
- Mean relative abundance (%) Glutamicibacter (ileal microbiota; [2]): 0.01%
- Mean relative abundance (%) Lachnoclostridium 5 (ileal microbiota; [2]): 0.00%
- Mean relative abundance (%) Ralstonia (ileal microbiota; [2]): 0.04%
- Mean relative abundance (%) Romboutsia (ileal microbiota; [2]): 0.24%
- Mean relative abundance (%) Serratia (ileal microbiota; [2]): 0.00%
- Mean relative abundance (%) Tyzzerella (ileal microbiota; [2]): 0.00%
- Mean relative abundance (%) uncultured genus of Mollicutes RF39 (ileal microbiota; [2]): 0.00%
- Mean relative abundance (%) uncultured genus of Peptostreptococcaceae (ileal microbiota; [2]): 38.50%
- Mean relative abundance of Lachnospiraceae (ileal microbiota; [2]): 2.54%
- Mean relative abundance of Peptostreptococcaceae (ileal microbiota; [2]): 39.1%
- Mean relative abundance of Ruminococcaceae (ileal microbiota; [2]): 1.35%
- L2FC of LinDA-normalized abundance of Lachnospiraceae (ileal microbiota; 0.1 vs 0 g berberine/kg feed): -0.49
- L2FC of LinDA-normalized abundance of Peptostreptococcaceae (ileal microbiota; 0.1 vs 0 g berberine/kg feed): 1.55
- L2FC of LinDA-normalized abundance of Ruminococcaceae (ileal microbiota; 0.1 vs 0 g berberine/kg feed): 0.41
- L2 FC Cronobacter, 0.5 vs 0 (ileal microbiota; [3]): -0.95
- L2 FC Curtobacterium, 0.5 vs 0 (ileal microbiota; [3]): -1.50
- L2 FC Faecalibacterium, 0.5 vs 0 (ileal microbiota; [3]): 1.01
- L2 FC Family_ Peptostreptococcaceae, 0.5 vs 0 (ileal microbiota; [3]): -0.52
- L2 FC Glutamicibacter, 0.5 vs 0 (ileal microbiota; [3]): -0.49
- L2 FC Lachnoclostridium 5, 0.5 vs 0 (ileal microbiota; [3]): -0.09
- L2 FC Ralstonia, 0.5 vs 0 (ileal microbiota; [3]): -1.95
- L2 FC Romboutsia, 0.5 vs 0 (ileal microbiota; [3]): -0.07
- L2 FC Serratia, 0.5 vs 0 (ileal microbiota; [3]): -0.80
- L2 FC Tyzzerella, 0.5 vs 0 (ileal microbiota; [3]): -0.72
- L2 FC uncultured genus of Mollicutes RF39, 0.5 vs 0 (ileal microbiota; [3]): 0.65
- L2 FC uncultured genus of Peptostreptococcaceae, 0.5 vs 0 (ileal microbiota; [3]): -0.24
- Mean relative abundance (%) Cronobacter (ileal microbiota; [4]): 0.00%
- Mean relative abundance (%) Curtobacterium (ileal microbiota; [4]): 0.02%
- Mean relative abundance (%) Faecalibacterium (ileal microbiota; [4]): 0.02%
- Mean relative abundance (%) Family_ Peptostreptococcaceae (ileal microbiota; [4]): 0.15%
- Mean relative abundance (%) Glutamicibacter (ileal microbiota; [4]): 0.01%
- Mean relative abundance (%) Lachnoclostridium 5 (ileal microbiota; [4]): 0.02%
- Mean relative abundance (%) Ralstonia (ileal microbiota; [4]): 0.05%
- Mean relative abundance (%) Romboutsia (ileal microbiota; [4]): 0.13%
- Mean relative abundance (%) Serratia (ileal microbiota; [4]): 0.00%
- Mean relative abundance (%) Tyzzerella (ileal microbiota; [4]): 0.00%
- Mean relative abundance (%) uncultured genus of Mollicutes RF39 (ileal microbiota; [4]): 0.02%
- Mean relative abundance (%) uncultured genus of Peptostreptococcaceae (ileal microbiota; [4]): 24.63%
- Mean relative abundance of Lachnospiraceae (ileal microbiota; [4]): 14.77%
- Mean relative abundance of Peptostreptococcaceae (ileal microbiota; [4]): 24.91%
- Mean relative abundance of Ruminococcaceae (ileal microbiota; [4]): 6.11%
- L2FC of LinDA-normalized abundance of Lachnospiraceae (ileal microbiota; 0.5 vs 0 g berberine/kg feed): -0.17
- L2FC of LinDA-normalized abundance of Peptostreptococcaceae (ileal microbiota; 0.5 vs 0 g berberine/kg feed): -0.50
- L2FC of LinDA-normalized abundance of Ruminococcaceae (ileal microbiota; 0.5 vs 0 g berberine/kg feed): 0.24
- L2 FC Cronobacter, 1 vs 0 (ileal microbiota; [5]): -3.64
- L2 FC Curtobacterium, 1 vs 0 (ileal microbiota; [5]): -2.66
- L2 FC Faecalibacterium, 1 vs 0 (ileal microbiota; [5]): -2.86
- L2 FC Family_ Peptostreptococcaceae, 1 vs 0 (ileal microbiota; [5]): -7.51
- L2 FC Glutamicibacter, 1 vs 0 (ileal microbiota; [5]): -2.76
- L2 FC Lachnoclostridium 5, 1 vs 0 (ileal microbiota; [5]): -3.40
- L2 FC Ralstonia, 1 vs 0 (ileal microbiota; [5]): -5.90
- L2 FC Romboutsia, 1 vs 0 (ileal microbiota; [5]): -6.95
- L2 FC Serratia, 1 vs 0 (ileal microbiota; [5]): -3.49
- L2 FC Tyzzerella, 1 vs 0 (ileal microbiota; [5]): -2.59
- L2 FC uncultured genus of Mollicutes RF39, 1 vs 0 (ileal microbiota; [5]): -3.09
- L2 FC uncultured genus of Peptostreptococcaceae, 1 vs 0 (ileal microbiota; [5]): -9.51
- Mean relative abundance (%) Cronobacter (ileal microbiota; 1 g berberine/kg feed, 21 days): 0.00%
- Mean relative abundance (%) Curtobacterium (ileal microbiota; 1 g berberine/kg feed, 21 days): 0.03%
- Mean relative abundance (%) Faecalibacterium (ileal microbiota; 1 g berberine/kg feed, 21 days): 0.01%
- Mean relative abundance (%) Family_ Peptostreptococcaceae (ileal microbiota; 1 g berberine/kg feed, 21 days): 0.01%
- Mean relative abundance (%) Glutamicibacter (ileal microbiota; 1 g berberine/kg feed, 21 days): 0.01%
- Mean relative abundance (%) Lachnoclostridium 5 (ileal microbiota; 1 g berberine/kg feed, 21 days): 0.00%
- Mean relative abundance (%) Ralstonia (ileal microbiota; 1 g berberine/kg feed, 21 days): 0.37%
- Mean relative abundance (%) Romboutsia (ileal microbiota; 1 g berberine/kg feed, 21 days): 0.01%
- Mean relative abundance (%) Serratia (ileal microbiota; 1 g berberine/kg feed, 21 days): 0.00%
- Mean relative abundance (%) Tyzzerella (ileal microbiota; 1 g berberine/kg feed, 21 days): 0.01%
- Mean relative abundance (%) uncultured genus of Mollicutes RF39 (ileal microbiota; 1 g berberine/kg feed, 21 days): 0.00%
- Mean relative abundance (%) uncultured genus of Peptostreptococcaceae (ileal microbiota; 1 g berberine/kg feed, 21 days): 0.72%
- Mean relative abundance of Lachnospiraceae (ileal microbiota; 1 g berberine/kg feed, 21 days): 26.87%
- Mean relative abundance of Peptostreptococcaceae (ileal microbiota; 1 g berberine/kg feed, 21 days): 0.73%
- Mean relative abundance of Ruminococcaceae (ileal microbiota; 1 g berberine/kg feed, 21 days): 8.08%
- L2FC of LinDA-normalized abundance of Lachnospiraceae (ileal microbiota; 1 vs 0 g berberine/kg feed): 2.99
- L2FC of LinDA-normalized abundance of Peptostreptococcaceae (ileal microbiota; 1 vs 0 g berberine/kg feed): -6.91
- L2FC of LinDA-normalized abundance of Ruminococcaceae (ileal microbiota; 1 vs 0 g berberine/kg feed): 3.41
- Estimated microbial diversity (Shannon index) (ileal microbiota; highest concentration (1 g/kg feed), p = 0.045): significantly increased
- Abundance of phylum Tenericutes (ileal microbiota; lowest concentration (0.1 g/kg feed)): increase
